Laboratory results reported in patent publication US5609897A, “Powdered beverage concentrate or additive fortified with calcium and vitamin D” (priority 1995, dated 1997).
Where a name gives a salt, the structure may show the parent alone. Read-outs that look alike come from different tables or passages of the source.

Key:
[1] = humans; cited from earlier work
[2] = cited from earlier work
[3] = rats, 3 weeks, right femur calcium, as compared to a control; cited from earlier work
[4] = without aluminum-containing drugs, normal kidneys; cited from earlier work
[5] = pH 3.5
Method: In this evaluation solubility was determined by a visual examination.

yeasts and molds = details: pH 4.5 to 3.0; cited from earlier work
[6] = Titratable acidity of calcium sources; assay type: physicochemical; details: from pH 3.5 to pH 8.3, 40 g sample
Source text: Acidity is desired in the liquid nutritional product of the present invention for several reasons such as: to maintain the calcium salt solubility, to complement flavor, to control microbial growth, and to enhance the role of preservatives, specifically potassium benzoate or sodium benzoate. On the other hand, too much acidity can result in increased tartness and sourness that make the product undesirable from a sensory point of view. […] Titratable acidity is an indication of the total acidity of a beverage.

[7] = low birth weight infants; cited from earlier work
[8] = piglets; cited from earlier work
[9] = cited from earlier work; remark: listed apart in the source

O=C(O)O [Calcium Carbonate, calcium carbonate]
Calcium absorption [1]: 29.6%
adverse effects of large amounts [2]: constipation and abdominal distention

O=C(O)CC(O)(CC(=O)O)C(=O)O [Calcium Citrate, calcium citrate]
Relative calcium bioavailability [3]: 110%
Risk of aluminum toxicity [4]: does not pose a risk of aluminum toxicity

O=C(O)[C@H](O)[C@@H](O)[C@H](O)[C@H](O)CO [D-Gluconic-Acid, D-gluconic acid (hemicalcium salt)]
Solubility [5]: soluble
Solubility over one month [5]: remained soluble at pH 3.5 for at least one month

O=P([O-])([O-])[O-].O=P([O-])([O-])[O-].[Ca+2].[Ca+2].[Ca+2] [Tricalcium Phosphate, tricalcium phosphate]
Relative calcium bioavailability [3]: 110%

O=C(O)c1ccccc1 [benzoic acid]
preservative effect on reducing pH from 4.5 to 3.0 (yeasts and molds): increased by nearly three times

Calcium Citrate Malate
Titratable acidity [6]: 53.2 mL of 0.1N NaOH
Calcium absorption [1]: 38.3%

Calcium Glycerophosphate [CaGP]
Titratable acidity [6]: 43.5 mL of 0.1N NaOH
Efficacy as source of calcium in TPN [7]: as effective as calcium gluconate
Efficacy as source of calcium in TPN [8]: as effective as calcium gluconate

vitamin D
calcium balance and fracture risk ([9]; 600-800 IU/day): improve calcium balance and reduce fracture risk
risks of excessive doses ([9]; excessive doses): hypercalciuria and hypercalcemia
